This is an account of results in ChEMBL document CHEMBL1152737, “Synthesis and biological evaluation of fused thio- and selenopyrans as new indolocarbazole analogues with aryl hydrocarbon receptor affinity” (Bioorg Med Chem, 2009).

Molecules are shown by their SMILES.

The series has as its system Aryl hydrocarbon receptor (Cavia porcellus). The series is described as follows: Activation of AhR expressed in guinea pig cytosolic fractions over expressed with XRE by ELISA based Ah-immunoassay relative to TCDD. For orientation: In an ELISA, binding on a coated surface is turned into a signal by an enzyme label.
Turning to `Cc1c2c3ccccc3nc-2sc2[nH]c3ccccc3c12`, the Activity was found to be 0.36.
As for `Cc1c2c3ccccc3nc-2[se]c2[nH]c3ccccc3c12`, the Activity was found to be 0.38.
On to `c1ccc2c3cc4c([nH]c5ccccc54)[se]c-3nc2c1`, for which the Activity is recorded as 0.32.
As for `c1ccc2c3cc4c([nH]c5ccccc54)sc-3nc2c1`, the figure is 0.29; as for `O=c1c2c([nH]c3ccccc32)sc2[nH]c3ccccc3c12`, 0.039.
The molecule `c1ccc2c3cc4[nH]c5ccccc5c4sc-3nc2c1` yielded an Activity of 0.132.
Molecule `c1ccc2c(c1)[nH]c1cc3c(cc12)[nH]c1ccccc13` registered an Activity of 1.48.
Take `COc1ccc2nc3[se]c4[nH]c5ccc(OC)cc5c4c(C)c-3c2c1`: the Activity was 0.013.
`CC1(C)c2c([nH]c3ccccc23)Sc2[nH]c3ccccc3c21` displayed an Activity of 0.0033.
Then `COc1ccc2nc3[se]c4[nH]c5ccc(OC)cc5c4cc-3c2c1`, with 0.009.
As for `C1=Cc2sc3ccccc3c2Sc2c1sc1ccccc21`, the figure is 0.055; as for `C1=Cc2sc3ccccc3c2[Se]c2c1sc1ccccc21`, 0.018.
